Here are results for three compounds from patent US6590123B2, “Aminobenzoic acid derivatives having anti-tumorigenic activity, methods of making and using the same” (Mount Sinai School of Medicine of New York University, priority 1998, dated 2003).

Series [1] has as its system CEM cells. The experiment in a line: DNA fragmentation by electrophoresis (apoptosis). The class given is cell-based, human. The settings on record: for apoptosis, DNA fragmentation on gel electrophoresis: 48 hours, compound 8 0.025 μg/ml, compound 9 0.005 μg/ml, fluorine compound 5.0 μg/ml, chlorine compound 0.75 μg/ml; for Apoptosis: 0.025 μg/ml, DNA electrophoresis. The method, then: DNA fragmentation was determined by a method reported previously (reference 3). Briefly, cells were treated in 1 ml lysis buffer (0.01M Tris. HCL pH 8.0, 0.01M NaCl, 0.01M EDTA pH 8.0 and 5% sodium dodecyl sulfate) containing 1 μg/ml protease K for 1 h at 50° C. The resulting products were extracted with phenol and chloroform:isoamylalcohol (24:1, v/v), and precipitated with ethanol followed by centrifugation at 7800 g (Sorvall RC-5B Du Pont, Newtown, Conn.). The ethanol was removed and the dry pellets of nucleic acid were resuspended in 10 mM Tris-HCL/1 mM EDTA solution. When DNA content was determined spectrophotometrically all samples had A260/A280 ratio≧2. The DNA samples were then treated with RNase (Sigma, St. Louis, Mo.) at a final concentration of 0.1 μg/μl for 20 min at 37° C. before gel loading. Approximately 4 μg size DNA aliquots were loaded onto horizontal agarose gel (1.5%) prepared with 1% ethidium bromide. Electrophoresis was performed at 75 volts for 2 h and the DNA patterns were visualized with UV light.
[…] After incubation, cells were washed twice in PBS. Cell pellets were resuspended in drug-free medium and incubated for 48 hr at 37° C. Cell viability, morphology, mitotic spindles, cell cycle distribution and apoptosis were determined 24 hr and 48 hr post pulse exposure.
Soluble DNA from cells was extracted by the method reported previously (14). Briefly, after washing with PBS, cells were treated in 1 ml lysis buffer (0.01 M Tris.HCL pH 8.0, 0.01 M NaCl, 0.01M EDTA pH 8.0 and 5% sodium dodecyl sulfate) containing 1 μg/ml proteinase K for 1 hr at 50° C. The resulting products were extracted with phenol and chloroform:isoamylalcohol (24:1, v/v), and precipitated with ethanol followed by centrifugation at 7800 g (Sorvall RC-5B Du Pont, Newtown, Conn.). The ethanol was removed and the dry pellet of nucleic acid was resuspended in 10 mM Tris-HCL/1 mM EDTA solution. DNA content was determined spectrophotometrically by measuring absorption at 260 nm (A260). All samples, had A260/A280≧2. The DNA samples were then treated with RNase (Sigma, St. Louis, Mo.) at a final concentration of 0.1 μg/l for 20 min at 37° C. before gel loading. The DNA sample (4 μg) was analyzed in 1.5% horizontal agarose gel prepared with 1% ethidium bromide. Electrophoresis was performed at 75 volts for 2 hours and the DNA migration was visualized under UV light.

Series [2] concerns B16 mouse melanoma. The experiment in a line: Block of mitosis, morphology by microscopy. The class given is cell-based. Also noted: key to Block of Mitosis: +Block of mitosis was observed; −no mitotic blocking. How it is done: (§1) All cell lines, with the exception of human SP cells, a biphenotypic leukemic cell line (reference 10 & 11), were obtained from the American Tissue Culture Collection (Rockville, Md.) and were cultured under conditions recommended by the vendor. EL4 murine leukemia lymphoma (as suspension) and B16 mouse melanoma (as monolayer) cell lines were cultivated in RPMI-1640 medium supplemented with 10% fetal bovine serum (FBS), penicillin (250 μ/ml) and streptomycin (250 μml); MOT, a non-tumor proliferative myocardial cell line from rat and NIH 3T3, a non-malignant and proliferative fibroblast cell line from mouse were both cultured as monolayers in Dulbecco's Modified Eagle's Medium with 10% heat inactivated calf serum. CEM, a human acute T-cell leukemic cell line, was cultured as a suspension in Iscove's Dulbecco's Medium with 10% heat inactivated fetal calf serum and antibiotics. PC-3 cells, a human prostate cancer line, was cultured as monolayers in RPMI-1640 with 10% FBS. SP cells were cultured in Minimum Eagle's Medium plus 10% FBS. Human peripheral blood lymphocytes (PBL) were isolated from whole blood of healthy individuals by Ficoll-Hypaque gradient method. Isolated PBL were maintained in RPMI-1640 in the presence of 10% homologous plasma at 37° C. All cells were incubated at 37° C. in 5% C02. Cells in exponential growth were used.
(§2) Cell samples on slides were prepared by a Cytospin centrifuge (Shandon Southern Products Ltd, England) at 700 g for 5 min. The slides were air dried, fixed in methanol and stained with Giemsa (Harleco, N.J.) at room temperature for 15 min. Alterations of nuclei, membranes and morphological features were observed by light microscopy. Cells in mitotic phase were recognized by the appearance of their chromosomes dispersed in the cytoplasm, and by the disappearance of nuclear membrane. Apoptotic-cells were identified using previously defined criteria, i.e., shrinkage in cell size, chromatin condensation and fragmentation of the nucleus into discrete masses (references 2 & 3). Necrotic cells were differentiated from apoptotic cells by observing swollen cytoplasm and the disappearance of cell membrane prior to the destruction of the nucleus.

Series [3] relates to Human peripheral blood lymphocytes (PBL). The experiment in a line: Block of mitosis, morphology by microscopy. The series is classed as cell-based. Also noted: key to Block of Mitosis: +Block of mitosis was observed; −no mitotic blocking. How it is done:
as §1, §2

In series [4] the test system is P338 leukemia lymphoma cells. The experiment in a line: Survival and ED50 in mice implanted i.p. with P338 lymphoma. The class given is in vivo, male C57 BL/6JX mice. Conditions: for ED50: P338 leukemia lymphoma i.p. in mice, drug i.p. on days 2 and 8. How it is done: FIG. 9 is a plot graph of the survival rate of male C57 BL/6JX mice implanted (i.p.) with P338 lymphoma, from 10 to 40 days after implantation. Two groups were used for the study: a control group of ten and a test group of ten that were treated with 20 mg/kg, (i.p.) of compound 8 at 2 and 8 days post-implantation.
(§3) The in vivo efficacy of 3-BAABU and 3-IAABU of the present invention was asssessed in a murine model, along with known anti-tubule agents, vinblastine and paclitaxel, as a comparative standard. Approximately 10^6 P338 leukemia lymphoma cells/mouse were implanted intra-peritoneal (i.p.) into male C57 BL/6JX mice (Jackson Laboratories, N.Y.). On days 2 and 8 post-implantation, drugs were administrated i.p. at the following concentration ranges: 3-BAABU from 16.6 to 116 μmole/kg, 3-IAABU from 14.4 to 101 μmole/kg, vinblastine from 2.2 to 20 μmole/kg and paclitaxel from 28 to 57 μmole/kg.
(§4) Both control and treated animals were examined for ascitic tumor burden daily for 35 days. […] Therapeutic index was defined as the ratio of LD50 (lethal dose) to ED50 (effective dose).

Series [5] is described as follows: LD50 (lethal dose) in mice. The settings on record: mouse, in vivo, ip.
From the text: as §3, §4

In general, ED50 refers to the dose that gives a 50% effect, or the effect in half of the subjects. Turning to `NC(=O)NC(=O)c1cccc(NC(=O)CBr)c1` [Compound 8, 3-Bromoacetoamido, benzoylurea], the “apoptosis, DNA fragmentation on gel electrophoresis” value (“apoptosis, DNA fragmentation” for short) in series [1] was 180-200 bp multiple-unit ladder pattern. Moreover, the Apoptosis result in series [1] (Continuous Exposure (24 hr; 48 hr in footnote)) and in series [1] (Pulse Exposure (1 hr)) was “++++ (++++: >75% cells were affected)” throughout. The “Block of Mitosis” value in series [2] (B16, Murine melanoma, 37° C. for 48 hr) is given as “+”; in series [3] (Normal human PBL (non-tumor), 37° C. for 48 hr), “−”. Also, the morphologic effect entry in series [2] (murine melanoma cells, 0.25 μg/ml, 24 hr at 37° C.) is reported as “induced mitotic arrest”; in series [3] (normal human lymphocytes, 2 μg/ml, 24 hr at 37° C.) it was “no effect”. Besides, the “Survival IL %” value in series [4] (P338 Lymphoma (i.p.), 20 mg/kg ip on days 2 & 8) is given as 54%. Besides, the “Survival Mean ± SD” value in series [4] (P338 Lymphoma (i.p.), 20 mg/kg ip on days 2 & 8, control 18.6 ± 1.1) stood at 28.6 ± 5.2. In addition, the 50% effective dose (ED50) in series [4] worked out at 27 µmol/kg. In addition, the LD50 result in series [5] was “about 90 μmole/kg”.

Regarding `NC(=O)NC(=O)c1cccc(NC(=O)CI)c1` [Compound 9, 3-Iodoacetoamido, benzoylurea], the “apoptosis, DNA fragmentation” value in series [1] was 180-200 bp multiple-unit ladder pattern. This compound also registered a median effective dose (ED50) in series [4] of 26 µmol/kg. For the same compound, the LD50 entry in series [5] was “about 90 μmole/kg”.

Take `NC(=O)NC(=O)c1cccc(NC(=O)CCl)c1` [Compound 7, 3-Chloroacetoamido, benzoylurea]: in series [1], the “apoptosis, DNA fragmentation” value was “much less DNA fragmentation”.
